Common to all, as to assay type: cell-based
One assay has as its system IL-6. Briefly: IL-6 inhibition in LPS-stimulated THP-1 cells (HTRF). Conditions: Homo sapiens; for inhibition at 10 µM: THP-1, read-out: percent inhibition at 10 μM; for EC50: THP-1 cells, LPS 500 ng/mL, 22 hours, IL6 HTRF. The procedure:
THP-1 cells were cultured in basal media with 1% FBS for 24 hours before the start of the assay. […] THP-1 cells were plated at 5000 cells/well in the 384-well plates and incubated at 37° C. for 2 h. 500 ng/mL of LPS was added after 2 hours and cells were incubated for another 22 hours at 37° C. Plates were spun in a centrifuge for 1 minute at […] and a mixture of anti-IL6 XL665, and anti-IL6 Cryptate diluted in reconstitution buffer (Cisbio Inc.) was added to each well. Following incubation for 3 hrs at room temperature, Homogeneous Time-Resolved Fluorescence (HTRF) was measured using the Envision (Perkin Elmer) at 665 nm and […]. The ratio of fluorescence at 665 nm to 620 nm was used as a readout for IL6 quantification. All samples were processed in duplicate. Readings were normalized to DMSO treated cells and normalized activities were utilized for EC50 calculations using the dose-response log (inhibitor) vs. response−variable slope (four parameters) nonlinear regression feature available in GraphPad Prism 5.0 (or Dotmatics).
(Time-resolved FRET reads energy transfer from a long-lived donor to a nearby acceptor.)

The test system of assay [1] is Wnt activity (Sp5-Luc reporter, SW480 colon carcinoma cells). The assay can be described thus: Wnt activity screening assay, Sp5-Luc reporter gene in SW480 cells. Conditions: Homo sapiens; for inhibition at 10 µM: SW480, read-out: percent inhibition at 10 μM; for EC50: Sp5-Luc reporter, SW480 cells, overnight incubation. The source says:
The screening assay for Wnt activity is described as follows. Reporter cell lines can be generated by stably transducing cancer cell lines (e.g., colon cancer) or primary cells (e.g., IEC-6 intestinal cells) with a lentiviral construct that includes a Wnt-responsive promoter driving expression of the firefly luciferase gene.
SW480 colon carcinoma cells were transduced with a lentiviral vector expressing luciferase with a human Sp5 promoter consisting of a sequence of eight TCF/LEF binding sites. SW480 cells stably expressing the Sp5-Luc reporter gene and a hygromycin resistance gene were selected by treatment with 150 μg/mL of hygromycin for 7 days. These stably transduced SW480 cells were expanded in cell culture and used for all further screening activities. […] For Sp5-Luc reporter gene assays, the cells were plated at 4,000 cells/well in 384-well plates with medium containing 1% fetal bovine serum and incubated overnight at 37° C. and 5% CO2. Following incubation, 20 μl of BrightGlo luminescence reagent (Promega) was added to each well of the 384-well assay plates. The plates were placed on an orbital shaker for 2 min and then luminescence was quantified using the Envision (Perkin Elmer) plate reader. Readings were normalized to DMSO only treated cells, and normalized activities were utilized for EC50 calculations using the dose-response log (inhibitor) vs. response−variable slope (four parameters) nonlinear regression feature available in GraphPad Prism 5.0 (or Dotmatics).

Assay [2] has as its system primary human fibroblasts derived from IPF patients (LL29 cells). The assay can be described thus: Inhibition of fibrotic process, αSMA staining in TGF-β1 treated fibroblasts. Conditions: Fibroblast; for EC50: 96 h, LL29 cells, TGF-β1 20 ng/mL, 4 days, % αSMA positive cells; for inhibition at 10 µM: read-out: percent inhibition at 10 μM. How it is done: Representative compounds were screened using primary human fibroblasts (derived from IPF patients) treated with TGF-β1 to determine their ability to inhibit the fibrotic process.
LL29 cells are plated at 1,500 cells/well in 80 μL/well F12 medium supplemented with 1% Fetal Bovine Serum. […] Wells treated with TGF-31 and containing DMSO were used as controls. […] Following incubation for 4 days, SYTOX green nucleic acid stain (Life Technologies [Thermo Fisher Scientific]) was added to the wells at a final concentration of 1 μM and incubated at room temperature for 30 min.

In another assay the test system is SW480 colon cancer cells. The assay can be described thus: Cell viability assay (CellTiter-Blue). Conditions: Homo sapiens; for EC50: 96 h, SW480 cell viability, four days; for inhibition at 10 µM: SW480, 96 h, read-out: percent inhibition at 10 μM. How it is done: Representative compounds were screened using the following assay procedure to assess the effect on cell viability as described below.
Approximately 2×10^3 SW480 colon cancer cells were seeded into each well and allowed to incubate in the presence or absence of compound for four days at 37° C./5% CO2. Eight replicates of DMSO-treated cells served as controls and cells treated with compound were performed in duplicate.
After incubation, 20 μL of CellTiter-Blue (Promega) was added to each well allowed to incubate for approximately 3 hours. This reagent was a buffered solution which contains resazurin, metabolically active cells were able to reduce rezarurin (blue) into resorufin (pink) which was highly fluorescent. This measured fluorescence was used as a readout for cell viability.

Structures are written as SMILES.

One may read the inhibition as how much of the control response was suppressed. As a reminder, the EC50 is the midpoint of the concentration-response curve. Read a low EC50 as greater potency. As to `O=C(Nc1cncc(-c2cnc3[nH]nc(-c4cc5c(-c6cccc(F)c6)cncc5[nH]4)c3c2)c1)c1ccccc1` [Compound 11, N-(5-(3-(4-(3-Fluorophenyl)-1H-pyrrolo[2,3-c]pyridin-2-yl)-1H-pyrazolo [3,4-b]pyridin-5-yl)pyridin-3-yl)benzamide], the inhibition at 10 µM in the assay with IL-6 is 20.2%; in assay [1], 22.5%; in the assay with SW480 colon cancer cells, 16.8%. The EC50 with IL-6 is greater than 10000 nM; in assay [1], greater than 10000 nM; in assay [2], 7570 nM; with SW480 colon cancer cells, greater than 10000 nM.
For `Fc1cccc(-c2cncc3[nH]c(-c4n[nH]c5ncc(-c6ccncc6)cc45)cc23)c1` [Compound 18, 3-(4-(3-Fluorophenyl)-1H-pyrrolo[2,3-c]pyridin-2-yl)-5-(pyridin-4-yl)-1H-pyrazolo[3,4-b]pyridine], the inhibition at 10 µM with IL-6 was 20.3%. In addition, the EC50 is greater than 10000 nM in the assay on IL-6, 4150 nM in assay [1], 1230 nM in assay [2] and 1900 nM in the assay on SW480 colon cancer cells.
In the case of `O=C(Nc1cncc(-c2cnc3[nH]nc(-c4cc5c(-c6cccc(F)c6)cncc5[nH]4)c3c2)c1)C1CCC1` [Compound 21, N-(5-(3-(4-(3-Fluorophenyl)-1H-pyrrolo[2,3-c]pyridin-2-yl)-1H-pyrazolo [3,4-b]pyridin-5-yl)pyridin-3-yl)cyclobutanecarboxamide], the EC50 with IL-6 was found to be 324 nM; in assay [1], 532 nM; in assay [2] it was 310 nM; in the assay on SW480 colon cancer cells, 586 nM.
Consider `CC(C)CC(=O)Nc1cncc(-c2cnc3[nH]nc(-c4cc5c(-c6ccc(F)cc6)cncc5[nH]4)c3c2)c1` [Compound 30, N-(5-(3-(4-(4-Fluorophenyl)-1H-pyrrolo[2,3-c]pyridin-2-yl)-1H-pyrazolo [3,4-b]pyridin-5-yl)pyridin-3-yl)-3-methylbutanamide], for which the inhibition at 10 µM in the assay with IL-6 turned out to be 24.6%. Further, the EC50 in the assay with IL-6 was greater than 10000 nM; in assay [1], 1630 nM; in assay [2] it was 1140 nM; in the assay with SW480 colon cancer cells, 1620 nM.
As for `CC(C)(C)C(=O)Nc1cncc(-c2cnc3[nH]nc(-c4cc5c(-c6ccc(F)cc6)cncc5[nH]4)c3c2)c1` [Compound 36, N-(5-(3-(4-(4-Fluorophenyl)-1H-pyrrolo[2,3-c]pyridin-2-yl)-1H-pyrazolo [3,4-b]pyridin-5-yl)pyridin-3-yl)pivalamide], the EC50 with IL-6 is 127 nM; in assay [1], greater than 10000 nM; in assay [2], 2550 nM; with SW480 colon cancer cells it was 2080 nM. The inhibition at 10 µM in assay [1] amounted to 18.8%.
Take `O=C(Nc1cncc(-c2cnc3[nH]nc(-c4cc5c(-c6ccc(F)cc6)cncc5[nH]4)c3c2)c1)C1CCCCC1` [Compound 51, N-(5-(3-(4-(4-Fluorophenyl)-1H-pyrrolo[2,3-c]pyridin-2-yl)-1H-pyrazolo [3,4-b]pyridin-5-yl)pyridin-3-yl)cyclohexanecarboxamide]: the EC50 was 3470 nM in the assay with IL-6, 2940 nM in assay [1], 1180 nM in assay [2] and 1440 nM in the assay with SW480 colon cancer cells.
Take `Fc1ccc(-c2cncc3[nH]c(-c4n[nH]c5ncc(-c6ccccn6)cc45)cc23)cc1` [Compound 56, 3-(4-(4-Fluorophenyl)-1H-pyrrolo[2,3-c]pyridin-2-yl)-5-(pyridin-2-yl)-1H-pyrazolo[3,4-b]pyridine]: the inhibition at 10 µM was 25% in the assay with IL-6, 15.5% in assay [1] and 38.2% in assay [2]. Further, the EC50 in the assay with IL-6 was greater than 10000 nM; in assay [1], greater than 10000 nM; in assay [2], greater than 10000 nM; with SW480 colon cancer cells, 5740 nM.
As to `CC(C)(C)CC(=O)Nc1cncc(-c2cnc3[nH]nc(-c4cc5c(-c6ccccc6F)cncc5[nH]4)c3c2)c1` [Compound 72, N-(5-(3-(4-(2-Fluorophenyl)-1H-pyrrolo[2,3-c]pyridin-2-yl)-1H-pyrazolo [3,4-b]pyridin-5-yl)pyridin-3-yl)-3,3-dimethylbutanamide], the EC50 in the assay with IL-6 amounted to 3120 nM; in assay [1], 1010 nM; in assay [2], 384 nM; with SW480 colon cancer cells it was 747 nM.
In the same order, the values of `O=C(Nc1cncc(-c2cnc3[nH]nc(-c4cc5c(-c6ccccc6F)cncc5[nH]4)c3c2)c1)C1CCCC1` [Compound 78, N-(5-(3-(4-(2-Fluorophenyl)-1H-pyrrolo[2,3-c]pyridin-2-yl)-1H-pyrazolo [3,4-b]pyridin-5-yl)pyridin-3-yl)cyclopentanecarboxamide] are 1290 nM, 840 nM, 408 nM and 638 nM.
Consider `CCC(=O)Nc1cncc(-c2cnc3[nH]nc(-c4cc5c(-c6cccnc6)cncc5[nH]4)c3c2)c1` [Compound 85, N-(5-(3-(4-(Pyridin-3-yl)-1H-pyrrolo[2,3-c]pyridin-2-yl)-1H-pyrazolo[3,4-b]pyridin-5-yl)pyridin-3-yl)propionamide], for which the inhibition at 10 µM in the assay with IL-6 was determined as 34.1%; in assay [1], 9.3%; in assay [2] it was 44.2%; in the assay with SW480 colon cancer cells, 10%. Besides, the EC50 (in the assay on IL-6; in assay [1]; in assay [2]; in the assay with SW480 colon cancer cells) was greater than 10000 nM in each case.
For the compound `c1ccc(-c2cnc3[nH]nc(-c4cc5c(-c6cccnc6)cncc5[nH]4)c3c2)nc1` [Compound 112, 5-(Pyridin-2-yl)-3-(4-(pyridin-3-yl)-1H-pyrrolo[2,3-c]pyridin-2-yl)-1H-pyrazolo[3,4-b]pyridine], the inhibition at 10 µM came out at 16.9% in the assay with IL-6 and 44.2% in assay [1]. The EC50 in the assay on IL-6 is greater than 10000 nM; in assay [1] it was greater than 10000 nM; in assay [2], 2190 nM; in the assay with SW480 colon cancer cells it was 3680 nM.
Take `CC(C)Nc1cncc(-c2cnc3[nH]nc(-c4cc5c(-c6ccncc6)cncc5[nH]4)c3c2)c1` [Compound 124, N-Isopropyl-5-(3-(4-(pyridin-4-yl)-1H-pyrrolo[2,3-c]pyridin-2-yl)-1H-pyrazolo[3,4-b]pyridin-5-yl)pyridin-3-amine]: the EC50 with IL-6 was 68 nM; in assay [1] it was greater than 10000 nM; in assay [2], 2400 nM; with SW480 colon cancer cells, greater than 10000 nM. Moreover, the figures for the inhibition at 10 µM (in assay [1]; in the assay with SW480 colon cancer cells) were 15.5% and 3.2%, respectively.
As to `O=C(Nc1cncc(-c2cnc3[nH]nc(-c4cc5c(-c6ccncc6)cncc5[nH]4)c3c2)c1)C1CCCC1` [Compound 134, N-(5-(3-(4-(Pyridin-4-yl)-1H-pyrrolo[2,3-c]pyridin-2-yl)-1H-pyrazolo[3,4-b]pyridin-5-yl)pyridin-3-yl)cyclopentanecarboxamide], the inhibition at 10 µM in the assay on IL-6 was 30%; in assay [1], 0%; in assay [2], 27.9%; in the assay on SW480 colon cancer cells, 10.6%. Further, the EC50 (with IL-6; in assay [1]; in assay [2]; in the assay on SW480 colon cancer cells) was greater than 10000 nM each time.
For the compound `CCNCc1cncc(-c2cnc3[nH]nc(-c4cc5c(N6CCCCC6)cncc5[nH]4)c3c2)c1` [Compound 174, N-((5-(3-(4-(Piperidin-1-yl)-1H-pyrrolo[2,3-c]pyridin-2-yl)-1H-pyrazolo [3,4-b]pyridin-5-yl)pyridin-3-yl)methyl)ethanamine], the EC50 in the assay on IL-6 was determined as 3400 nM; in assay [1], 9460 nM; in assay [2] it was 3610 nM; in the assay on SW480 colon cancer cells it was 4140 nM.

The record behind these values is patent US20180221352A1, “3-(1H-PYRROLO[2,3-C]PYRIDIN-2-YL)-1H-PYRAZOLO[3,4-B]PYRIDINES AND THERAPEUTIC USES THEREOF” (Samumed, LLC, priority 2015, published 2018).
